These results are taken from patent US20250188110A1, “SPECIFIC SMALL MOLECULE INHIBITORS THAT BLOCK KMT9 METHYLTRANSFERASE ACTIVITY AND FUNCTION” (ALBERT-LUDWIGS-UNIVERSITÄT FREIBURG, priority 2021, published 2025).

Like-named read-outs stand apart in the source and are kept apart here.

The target of test [1] is T1, KMT9 (Homo sapiens, UniProt Q9Y5N5).
T1 sequence (Q9Y5N5 1-214): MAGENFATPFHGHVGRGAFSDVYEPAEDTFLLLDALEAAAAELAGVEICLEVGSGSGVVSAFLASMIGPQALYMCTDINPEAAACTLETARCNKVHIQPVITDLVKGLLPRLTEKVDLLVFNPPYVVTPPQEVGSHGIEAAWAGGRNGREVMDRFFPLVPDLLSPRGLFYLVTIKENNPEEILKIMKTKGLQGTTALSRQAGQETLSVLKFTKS
T1 sequence (Q9UI30 1-120 isoform Q9UI30-2 partner): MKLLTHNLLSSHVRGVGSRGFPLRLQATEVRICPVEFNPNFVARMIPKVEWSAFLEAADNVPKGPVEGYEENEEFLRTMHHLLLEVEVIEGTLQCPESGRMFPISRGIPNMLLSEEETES
Nature of the test: Microscale thermophoresis (MST) KMT9 binding. Put shortly: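 His-tagged KMT9 (20 nM), RED-Tris-NTA labelled, titrated with varying compound concentrations in 25 mM HEPES pH 7.5, 100 mM NaCl, 1 mM DTT, 0.05% Tween. MST at 40% MST and 100% LED power, Nano-RED excitation; Kd binned A ≤10 nM, B 10–100, C 100–1000, D >1000 nM.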
(In general: MST reads how a fluorescent partner responds to local heating, with and without ligand.)

Test [2] concerns the target T1, KMT9. Briefly: KMT9 thermal shift assay (SyproOrange). Type of test: binding. Put shortly: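 Recombinant KMT9 was incubated with compound and SyproOrange at 25° C in 50 mM BTP pH 8.5, 1 mM MgCl2, 1 mM DTT. It was then heated from 20° C to 95° C at 1° C per 15 s with fluorescence read each step. Tm came from a Boltzmann sigmoidal fit; ΔTm relative to DMSO control, binned in 5 K ranges.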

For test [3], the target named is T1, KMT9. Briefly: KMT9 methyltransferase inhibition assay, MTaseGlo luminescence (from entry 155). Type of test: biochemical. As to conditions: 100 nM KMT9, 5 μM ETF1, 1 μM SAM. How it is done: For the compounds from entry 155 on in Table 1, the following procedure was used to determine IC50 values: The assay was carried out in white, opaque 384-well OptiPlates (PerkinElmer). For IC50 determination, a 2.5x substrate mix (final assay concentrations: 5 μM ETF1, 1 μM SAM and 1x MTaseGlo Reagent), a 2.5x KMT9 solution (final assay concentration 100 nM) and a 5x inhibitor stock 1:1 dilution series (concentration according to the desired range; dilution series was prepared in assay buffer containing 10% DMSO to obtain a final DMSO concentration of 2% in the assay) were prepared. 2 μL of 5x inhibitor stock and 4 μL of 2.5x KMT9 were pipetted, the plate was spun down at 700 rpm for 1 min using a Hettich UNIVERSAL 320 centrifuge and incubated at room temperature (around 25° C.) for 15 min. The reaction was initiated by adding 4 μL of 2.5x substrate mix, the plate was spun down as described before and incubated at 30° C. for 2 h. Afterwards, 10 μL of 2× MTaseGlo Detection solution was added, the plate was centrifuged as described above and incubated for 60 min at room temperature. Luminescence was measured using a PerkinElmer EnVision 2102 Multilabel Reader. Calculation of inhibition and data fitting was carried out as for entries 1-154. described above.
For the results of the methyltransferase inhibition assay shown as “Inhibition” in Table 1, “I” represents an IC50 less than 0.1 μM, “II” represents an IC50 equal or higher than 0.1 μM and less than 1 μM, “III” represents an IC50 equal or higher than 1 µM and less than 10 µM and “IV” represents an IC50 equal or higher than 10 µM

The mark [4] stands for this setting: His-tag labelled KMT9 20 nM, read-out: MST (Kd).
[5] abbreviates: 500 µM compound, 2 μM KMT9, read-out: Thermal shift (ΔTm).
[6] abbreviates: MTaseGlo procedure (entries from 155), read-out: Inhibition (IC50).
[7] abbreviates: His-tag labelled KMT9 20 nM, Kd class, read-out: MST.
The mark [8] stands for this setting: ΔTm class, 500 uM compound, 2 μM KMT9, read-out: Thermal shift.
The mark [9] stands for this setting: IC50 class, MTaseGlo procedure (entries from 155 on), read-out: Inhibition.
[10] abbreviates: microscale thermophoresis, His-tag labelled KMT9 (20 nM), read-out: MST.
[11] abbreviates: ΔTm, 500 µM compound, 2 μM KMT9, 5X SO, read-out: Thermal shift.
[12] abbreviates: from entry 155: MTaseGlo assay, read-out: Inhibition.

As to `Nc1nc(Cl)nc2c1c(Br)cn2[C@@H]1CC(CNCCCNCCc2ccc(F)cc2)[C@@H](O)[C@H]1O` (mixture of isomers) [Compound 547, (1R,2S,3R)-3-(4-amino-5-bromo-2-chloro-7H-pyrrolo[2,3-d]pyrimidin-7-yl)-5-(((3-((4-fluorophenethyl)amino)propyl)amino)methyl)cyclopentane-1,2-diol], the Kd in test [1] (setting [4]) was ≤ 0.01 µM. Besides, in test [2] (setting [5]), the ΔTm at 500 µM was > 20 °C. In addition, the IC50 in test [3] (setting [6]) was 0.1 to 1 µM.

On to `Nc1nc(Cl)nc2c1c(-c1nccs1)cn2[C@@H]1CC(CN(CCCNCCc2ccc(F)cc2)c2cn[nH]c2)[C@@H](O)[C@H]1O` (single isomer, unassigned) [Compound 543], for which the Kd in test [1] (setting [4]) was ≤ 0.01 µM. Besides, the ΔTm at 500 µM in test [2] (setting [5]) was > 20 °C. The IC50 in test [3] (setting [6]) was in the range of 0.1 to 1 µM.

Regarding `Nc1ncnc2c1ccn2[C@@H]1C[C@H](c2cn[nH]c2)[C@@H](O)[C@H]1O` [Compound 658, (1R,2S,3R,5R)-3-{4-Aminopyrrolo[2,3-d]pyrimidin-7-yl}-5-(1H-pyrazol-4-yl)cyclopentane-1,2-diol], the Kd in test [1] (setting [4]) was > 1 µM. The ΔTm at 500 µM in test [2] (setting [5]) is ≤ 10 °C. Besides, the IC50 in test [3] (setting [6]) is > 10 µM.

Take `CN1CCCC([C@H]2C[C@@H](n3cc(-c4nc(Cc5ccccc5)cs4)c4cnc(Cl)nc43)[C@H](O)[C@@H]2O)C1` (stereo partly drawn) [Compound 515, (1R,2S,3R)-3-[5-(4-benzyl-1,3-thiazol-2-yl)-2-chloropyrrolo[2,3-d]pyrimidin-7-yl]-5-(1-methylpiperidin-3-yl)cyclopentane-1,2-diol]: the Kd in test [1] (setting [7]) was in the range of 0.1 to 1 µM. Further, the ΔTm at 500 µM in test [2] (setting [8]) lay within 15 to 20 °C. In addition, the IC50 in test [3] (setting [9]) fell in the range of 1 to 10 µM.

Regarding `Nc1ccc([C@H]2C[C@@H](n3ccc4c(N)ncnc43)[C@H](O)[C@@H]2O)cc1` [Compound 409, (1r,2s,3r,5r)-3-(4-amino-7H-pyrrolo[2,3-d]pyrimidin-7-yl)-5-(4-aminophenyl) cyclopentane-1,2-diol], the Kd in test [1] (setting [7]) is > 1 µM. Moreover, the ΔTm at 500 µM in test [2] (setting [8]) is ≤ 10 °C. Besides, the IC50 in test [3] (setting [9]) is > 10 µM.

Consider `Nc1ncnc2c1ccn2[C@@H]1C[C@H](c2ccccc2)[C@@H](O)[C@H]1O` [Compound 385, (1R,2S,3R,5R)-3-(4-amino-7H-pyrrolo[2,3-d]pyrimidin-7-yl)-5-phenylcyclopentane-1,2-diol], for which the Kd in test [1] (setting [10]) was > 1 µM. In addition, in test [2] (setting [11]), the ΔTm at 500 µM was ≤ 10 °C. Also, in test [3] (setting [12]), the IC50 was > 10 µM.

With `CCN1CCC([C@H]2C[C@@H](n3cc(-c4nc(Cc5ccccc5)cs4)c4c(N)nc(Cl)nc43)[C@H](O)[C@@H]2O)CC1` [Compound 504, (1R,2S,3R,5R)-3-[4-amino-5-(4-benzyl-1,3-thiazol-2-yl)-2-chloropyrrolo[2,3-d]pyrimidin-7-yl]-5-(1-ethylpiperidin-4-yl)cyclopentane-1,2-diol], the Kd in test [1] (setting [7]) was ≤ 0.01 µM. In addition, the ΔTm at 500 µM in test [2] (setting [8]) was > 20 °C. The IC50 in test [3] (setting [9]) lay within 0.1 to 1 µM.

Turning to `NCc1cccc([C@H]2C[C@@H](n3ccc4c(N)ncnc43)[C@H](O)[C@@H]2O)c1` [Compound 659, (1R,2S,3R,5R)-3-(4-Amino-7H-pyrrolo[2,3-d]pyrimidin-7-yl)-5-(3-(aminomethyl)phenyl)cyclopentane-1,2-diol], the Kd in test [1] (setting [4]) was in the range of 0.1 to 1 µM. Further, the ΔTm at 500 µM in test [2] (setting [5]) was ≤ 10 °C. For the same compound, the IC50 in test [3] (setting [6]) fell in the range of 1 to 10 µM.

On to `O[C@@H]1[C@H](O)[C@@H](C2CCN(CC(F)(F)F)CC2)C[C@H]1n1cc(-c2nc(Cc3ccccc3)cs2)c2cnc(Cl)nc21` [Compound 499, (1R,2S,3R,5R)-3-(5-(4-Benzylthiazol-2-yl)-2-chloro-7H-pyrrolo[2,3-d]pyrimidin-7-yl)-5-(1-(2,2,2-trifluoroethyl)piperidin-4-yl)cyclopentane-1,2-diol], for which the Kd in test [1] (setting [7]) was > 1 µM. Moreover, in test [2] (setting [8]), the ΔTm at 500 µM is ≤ 10 °C. The IC50 in test [3] (setting [9]) was > 10 µM.

As for `COc1cc(OC)cc([C@H]2C[C@@H](n3cc(-c4ccn(C)n4)c4c(N)nc(Cl)nc43)[C@H](O)[C@@H]2O)c1` [Compound 678, (1R,2S,3R,5R)-3-[4-amino-2-chloro-5-(1-methylpyrazol-3-yl)pyrrolo[2,3-d]pyrimidin-7-yl]-5-(3,5-dimethoxyphenyl)cyclopentane-1,2-diol], the Kd in test [1] (setting [4]) lay within 0.1 to 1 µM. Moreover, the ΔTm at 500 µM in test [2] (setting [5]) fell in the range of 10 to 15 °C. The IC50 in test [3] (setting [6]) lay in the range of 1 to 10 µM.

`COc1cccc([C@H]2C[C@@H](n3cc(Br)c4c(N)nc(Cl)nc43)[C@H](O)[C@@H]2O)c1` [Compound 669, (1R,2S,3R,5R)-3-(4-amino-5-bromo-2-chloro-7H-pyrrolo[2,3-d]pyrimidin-7-yl)-5-(3-methoxyphenyl)cyclopentane-1,2-diol]: in test [1] (setting [4]), the Kd was 0.01 to 0.1 µM. In addition, the ΔTm at 500 µM in test [2] (setting [5]) fell in the range of 10 to 15 °C. Besides, the IC50 in test [3] (setting [6]) is 1 to 10 µM.

As to `CN1CCC[C@H]([C@H]2C[C@@H](n3cc(-c4nc(Cc5ccccc5)cs4)c4c(N)nc(Cl)nc43)[C@H](O)[C@@H]2O)C1` [Compound 597R, (1R,2S,3R,5R)-3-(4-Amino-5-(4-benzylthiazol-2-yl)-2-chloro-7H-pyrrolo[2,3-d]pyrimidin-7-yl)-5-((R)-1-methylpiperidin-3-yl)cyclopentane-1,2-diol], in test [1] (setting [4]), the Kd was ≤ 0.01 µM. Moreover, the ΔTm at 500 µM in test [2] (setting [5]) lay in the range of 15 to 20 °C. Moreover, the IC50 in test [3] (setting [6]) fell in the range of 0.1 to 1 µM.

As for `Nc1nc(Cl)nc2c1c(-c1ccn(Cc3ccccc3)n1)cn2[C@@H]1C[C@H](C2CCNCC2)[C@@H](O)[C@H]1O` [Compound 501, (1R,2S,3R,5R)-3-(4-Amino-5-(1-benzyl-1H-pyrazol-3-yl)-2-chloro-7H-pyrrolo[2,3-d]pyrimidin-7-yl)-5-(piperidin-4-yl)cyclopentane-1,2-diol], the Kd in test [1] (setting [10]) is ≤ 0.01 µM. Further, in test [2] (setting [11]), the ΔTm at 500 µM was > 20 °C. For the same compound, in test [3] (setting [12]), the IC50 is < 0.1 µM.

For the compound `O[C@@H]1[C@H](O)C(CNCCCNCCc2ccc(F)cc2)C[C@H]1n1cc(-c2cccs2)c2cnc(Cl)nc21` (mixture of isomers) [Compound 581, (1R,2S,3R)-3-(2-chloro-5-(thiophen-2-yl)-7H pyrrolo[2,3-d]pyrimidin-7-yl)-5-(((3-((4-fluorophenethyl)amino)propyl)amino)methyl)cyclopentane-1,2-diol], the Kd in test [1] (setting [4]) is ≤ 0.01 µM. Further, the ΔTm at 500 µM in test [2] (setting [5]) lay within 10 to 15 °C. Besides, the IC50 in test [3] (setting [6]) was in the range of 1 to 10 µM.

Consider `CCc1cn([C@@H]2C[C@H](CNCCCNCCc3ccc(F)cc3F)[C@@H](O)[C@H]2O)c2ncnc(N)c12` [Compound 383, (1R,2S,3R,5R)-3-(4-amino-5-ethyl-7H-pyrrolo[2,3-d]pyrimidin-7-yl)-5-(((3-((2,4-difluorophenethyl)amino)propyl)amino)methyl) cyclopentane-1,2-diol], for which the Kd in test [1] (setting [10]) was in the range of 0.01 to 0.1 µM. Besides, in test [2] (setting [11]), the ΔTm at 500 µM lay in the range of 10 to 15 °C. Besides, in test [3] (setting [12]), the IC50 fell in the range of 1 to 10 µM.

Regarding `Nc1ncnc2c1ccn2[C@@H]1C[C@H](c2cccc(Cl)c2)[C@@H](O)[C@H]1O` [Compound 407, (1R,2S,3R,5R)-3-(4-amino-7H-pyrrolo[2,3-d]pyrimidin-7-yl)-5-(3-chlorophenyl) cyclopentane-1,2-diol], the Kd in test [1] (setting [4]) is > 1 µM. Further, the ΔTm at 500 µM in test [2] (setting [5]) was ≤ 10 °C. In addition, the IC50 in test [3] (setting [6]) is > 10 µM.

`Nc1nc(Cl)nc2c1c(-c1ccccc1)cn2[C@@H]1C[C@H](CNCCCNCCc2ccc(F)cc2)[C@@H](O)[C@H]1O` [Compound 566, (1R,2S,3R,5R)-3-(4-amino-2-chloro-5-phenyl-7/pyrrolo[2,3-d]pyrimidin-7-yl)-5-(( (3-((4-fluorophenethyl)amino)propyl)amino)methyl)cyclopentane-1,2-diol]: in test [1] (setting [7]), the Kd was ≤ 0.01 µM. The ΔTm at 500 µM in test [2] (setting [8]) was > 20 °C. The IC50 in test [3] (setting [9]) was in the range of 0.1 to 1 µM.
